Assay results: patent US20100305207A1, “GLYCOGEN PHOSPHORYLASE INHIBITOR COMPOUND AND PHARMACEUTICAL COMPOSITION THEREOF” (priority 2007, published 2010)

Key:
[1] = target: T1, human liver glycogen phosphorylase a (HLGPa) (Homo sapiens, UniProt P06737); assay: Human liver glycogen phosphorylase a enzymatic activity assay; format: biochemical; conditions: 15 nM HLGPa, coupled resorufin fluorescence readout, 15 min preincubation; assay run with and without 10 mM glucose, not stated which applies
T1 construct: creating a full-length cDNA fused at the 5′ end to codons for methionine-glycine-alanine-histidine; 6x histidine tag (leader Met-Gly-Ala-His6-Gly-Gly) (N); Tev protease cleavage site (Glu-Asn-Leu-Tyr-Phe-Gln-Gly-Gly) (N); made in house; host or cells: E. coli (bacterial expression plasmid pTXK1007LTev)
T1 sequence (P06737 2-847): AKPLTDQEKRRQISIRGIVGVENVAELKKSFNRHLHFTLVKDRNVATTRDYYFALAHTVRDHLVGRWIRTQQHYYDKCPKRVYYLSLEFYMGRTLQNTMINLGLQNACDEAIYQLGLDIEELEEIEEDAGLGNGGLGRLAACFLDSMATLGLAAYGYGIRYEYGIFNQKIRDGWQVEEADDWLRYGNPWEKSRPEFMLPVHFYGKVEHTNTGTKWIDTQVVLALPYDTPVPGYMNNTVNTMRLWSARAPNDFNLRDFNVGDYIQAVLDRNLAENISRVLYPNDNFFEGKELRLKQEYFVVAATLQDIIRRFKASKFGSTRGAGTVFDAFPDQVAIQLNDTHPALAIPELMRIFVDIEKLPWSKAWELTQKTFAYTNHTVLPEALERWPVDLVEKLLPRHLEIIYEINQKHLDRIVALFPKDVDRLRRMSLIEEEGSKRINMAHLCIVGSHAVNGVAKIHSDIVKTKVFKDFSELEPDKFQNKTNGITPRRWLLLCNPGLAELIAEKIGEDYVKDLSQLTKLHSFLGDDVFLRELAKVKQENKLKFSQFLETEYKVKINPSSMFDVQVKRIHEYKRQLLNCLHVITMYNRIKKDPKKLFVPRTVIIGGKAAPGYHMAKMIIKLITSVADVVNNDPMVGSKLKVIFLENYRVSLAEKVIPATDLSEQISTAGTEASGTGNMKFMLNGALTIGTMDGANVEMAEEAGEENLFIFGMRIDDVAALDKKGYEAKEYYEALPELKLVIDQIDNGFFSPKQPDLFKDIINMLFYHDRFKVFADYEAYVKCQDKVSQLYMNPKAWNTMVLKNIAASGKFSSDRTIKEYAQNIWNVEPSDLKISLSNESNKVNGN
Text: The purified glycogen phosphorylase (GP) enzyme, wherein glycogen phosphorylase is in the activated “a” state, referred to as human liver glycogen phosphorylase a (HLGPa), can be obtained according to the following procedures.
Human liver glycogen phosphorylase cDNA was amplified by polymerase chain reaction (PCR) from a commercially available human liver cDNA library (BD Biosciences). The cDNA was amplified as 2 overlapping fragments using the primers 5′[…]3′ with 5′[…]3′ and 5′[…]3′ with 5′[…]3′. PCR conditions were 94° C. 1 min., 55° C. 1 min., 72° C. 2 min. for 40 cycles using the enzyme Pfu Turbo (Stratagene), 0.5% DMSO, 250 uM each nucleotide triphosphate, and 0.4 uM each primer plus the buffer recommended by the polymerase manufacturer. Each PCR fragment was molecularly cloned and the DNA sequence of each insert was determined. […] The DNA sequence of both strands of the cDNA in pTXK1007LTev was determined. […]
Frozen purified glycogen phosphorylase (HLGPb) was thawed in at 4° C. then dialyzed overnight into 50 mM HEPES, 100 mM NaCl, pH 7.4. […] The degree of phosphorylation was monitored by following the increase in activity at 10 minute intervals using the assay system outlined below. […]

male CD rats = assay: In vivo glucagon challenge model; set-up: species or system rat; conditions: glucagon 10 ug/kg + Sandostatin 0.5 mg/kg i.v. 2 hr after dosing, serum glucose 0-20 min
Procedure: Jugular vein cannulated male CD rats (220-260 g) (Charles Rivers, Raleigh, N.C.) were received 1-2 days after cannulation, housed individually on Alpha-dri™ bedding (Shepherd Specialty Papers, Inc., Kalamazoo, Mich.) with free access to food (Lab Diet 5001, PMI Nutrition International, Brentwood, Mo.) and water and maintained on a 12 h light/dark cycle at 21° C. and 50% relative humidity for 3-4 days prior to the glucagon challenge studies. On the day of the study, the rats were sorted by body weight into treatment groups (N=4-5) and housed individually in shoe box cages with clean Alpha-dri bedding. The cannula lines were opened by removal of 0.2 ml blood and flushed with 0.2 ml sterile saline. After a one hour acclimation, blood samples were collected to determine basal glucose and the rats were orally dosed with vehicle (5% DMSO: 30% Solutol HS15: 20% PEG400: 45% 25 mM N-methylglucamine) or drug (5 ml/kg). Two hr after drug dosing, a time zero blood sample (0.4 ml) was collected for determination of glucose and the rats were dosed through the jugular vein with Sandostatin, 0.5 mg/kg, (Novartis Pharmaceuticals Corp., East Hanover, N.J.) and glucagon, 10 ug/kg (Bedford Laboratories, Bedford, Ohio). Blood samples were collected after 10 and 20 min for glucose determination. Whole blood was placed in a Terumo Capiject blood collection tube (Terumo Medical Corp., Elkton, Md.), allowed to sit at room temperature for 20-30 minutes and then centrifuged (3,000×G) to obtain serum. Serum levels of glucose were determined using an Olympus AU640™ clinical chemistry immuno-analyzer (Olympus America Inc., Melville, N.Y.). The % reduction (% R) of the vehicle glucose AUC was calculated for each drug treatment using the formula % reduction=100*1−(AUC drug/AUC vehicle), where AUG was calculated from serum glucose values using the equation AUG=(T0+T10)/2*10+(T10+T20)/2*10−(T0*20).

IC50 [1]: 4 nM
Compound: COCCOc1ccc(C(=O)N[C@H](C(=O)O)[C@@H](C)OC(C)(C)C)c(NC(=O)Nc2c(C)cc(CC3CC3)cc2C)c1 [Example 1, N-[(2-[({[4-(Cyclopropylmethyl)-2,6-dimethylphenyl]amino}carbonyl)amino]-4-{[2-(methyloxy)ethyl]oxy}phenyl)carbonyl]-O-(1,1-dimethylethyl)-L-threonine]
% R (% reduction of the vehicle glucose AUC) (male CD rats; 0.1 mg/kg oral): 4% | % R (% reduction of the vehicle glucose AUC) (male CD rats; 0.5 mg/kg oral): 36% | % R (% reduction of the vehicle glucose AUC) (male CD rats; 2 mg/kg oral): 48% | % R (% reduction of the vehicle glucose AUC) (male CD rats; 5 mg/kg oral): 76%
